Assay results as given in patent US9133138B2, “Use of a quinazoline compound in preparing a medicament against flaviviridae virus” (priority 2010, dated 2015).
Like-named read-outs stand apart in the source and are kept apart here.

Experiments:
[1] = test system: Hepatitis C virus; test: Huh7.5.1-HCV determination (J399EM NS5A-EGFP fluorescence); type: cell-based
Source text: (§1) The Inhibitive Activity Test of the Quinazoline Compounds of the Present Invention Against Dengue Virus Serotype II and Hepatitis C Virus of Flaviviridae:
(§2) The test results of the inhibitive activity of the quinazoline compounds of the present invention against dengue virus serotype II and Hepatitis C virus of Flaviviridae are listed in table 1.
Huh7.5.1-HCV Determination:
Huh7.5.1 cell, which is currently the only cell model which can be in vitro infected by HCV viruses, can be infected by HCV viruses in vitro, and generates infective progeny viruses. J399EM is a HCV full-length mutant strain transfected by EGFP, and can generate viruses which have the same infectivity as wild-type JFH-1. Meanwhile, NS5A-EGFP fusion protein fluorescence can be observed directly in the infected cells by inserting the EGFP coding sequence into NS5A region. In this experiment, Huh7.5.1 cells were inoculated on a 96-well plate and cultured under 5% CO2 at 37° C. for 24 h. Huh7.5.1 cells were infected by J399EM virus supernatant (moi≈0.1). Meanwhile, cell control wells free from infection were included. The infected cells were washed with PBS after 8 h infection. Samples with different concentrations were added into Huh7.5.1 cells infected by J399EM viruses. Each concentration was set double wells, and control well without sample was included. The tested samples were diluted to six gradient concentrations and added respectively, and the cells were cultured for another 72 h. After the cells were treated by the samples for 72 hours, the relative intensity of fluorescence (RFU) was recorded at an excitation wavelength of 488 nm and an emission wavelength of 516 nm on a fluorescent ELISA Reader to detect the inhibition effect of the samples against HCV. The inhibition rate against HCV virus was calculated according to equation.
(§3) The inhibitive effect of the compounds on the copy number of the viruses in the culture supernatant of the BHK infected by DV2 directly reflects the inhibitive effect of the compounds against the generation of progeny viruses. In the HCV detection, the inhibitive effect of the compounds against intracellular replication of the HCV viruses can be visually determined via fluoroscopy. Meanwhile, as the only cell model which can currently be infected in vitro, Huh7.5.1 cell model infected by HCV viruses can maximumly reproduce the infection and replication process of Hepatitis C virus in vivo.

[2] = test system: dengue virus serotype II; test: BHK-DV2 replication determination (qPCR of viral genome copy number in culture supernatant); type: cell-based; conditions: 96 h, BHK cells infected with DV2 (MOI=0.05), 4 days culture, viral RNA copy number in supernatant by qPCR
Experimental: as §1, §2
BHK-DV2-Replication Determination:
BHK cells were inoculated on a 96-well plate. 24 hours later, DV2 viruses were added to infect for 2 h (MOI=0.05), and then viral liquid was washed away. After fresh culture medium was replaced, compounds with different concentrations were added respectively, including infection control without addition of compounds and normal MK control free from infection. After 4 days culture, the supernatant of culture fluid was sucked and centrifuged at 1000RCF for 5 min to remove the cell precipitate. Virus RNA was extracted from the supernatant by using a kit, and then reverse transcriped to be as cDNA, which was evaluated by qPCR method to determine the copy number of the virogene group in the supernatant.
as §3

[3] = Hepatitis C virus, Huh-7.5.1, 72 h, read-out: Huh7.5.1-HCV (replication) IC50

Row | Compound | IC50 ([1]; Hepatitis C virus, read-out: half effective inhibitive concentration against HCV virus tested in vitro) [µM] | IC50 [1, 3] [µM] | IC50 [2] [µM] | IC50 ([1]; common control compounds, HCV in vitro, read-out: half effective inhibitive concentration against HCV virus tested in vitro) [µM]
1 | NC(=O)c1ncn([C@@H]2O[C@H](CO)[C@@H](O)[C@H]2O)n1 [Ribavirin, reference compound] | 20 |  |  | 
2 | COc1cccc2nc(N)nc(N)c12 [Yhhu-0967, 5-methoxy-2,4-diaminoquinazoline] |  | 5.73 | 0.76 | 
3 | Nc1nc(N)c2c(Oc3ccc(Cl)cc3)cccc2n1 [Yhhu-0968, 5-(4-chlorophenoxy)-2,4-diamino quinazoline] |  |  | > 5 | 
4 | COc1ccccc1Oc1cccc2nc(N)nc(N)c12 [Yhhu-0969, 5-(2-methoxyphenoxy)-2,4-diaminoquinazoline] |  |  | 1.12 | 
5 | Nc1nc(N)c2c(Oc3ccccc3)cccc2n1 [Yhhu-0970, 5-phenoxy-2,4-diaminoquinazoline] |  | 3.18 | 0.43 | 
6 | CC(C)(C)c1ccc(Oc2cccc3nc(N)nc(N)c23)cc1 [Yhhu-1035, 5-(4-tert-butylphenoxy)-2,4-diaminoquinazoline] |  | 4.75 | 1.97 | 
7 | CC(C)(C)Oc1cccc2nc(N)nc(N)c12 [Yhhu-1036, 5-tert-butoxy-2,4-diaminoquinazoline] |  | 1.23 | 0.009 | 
8 | Nc1nc(N)c2c(OCCN3CCCC3)cccc2n1 [Yhhu-1041, 5-(2-(1-pyrrolidinyl)ethoxy)-2,4-diaminoquinazoline] |  | 12.3 | 7.13 | 
9 | Nc1nc(N)c2c(OCc3ccccc3)cccc2n1 [Yhhu-1046, 5-benzyloxy-2,4-diaminoquinazoline] |  | 2.36 | 0.34 | 
10 | Nc1nc(N)c2c(Oc3cccc(Cl)c3)cccc2n1 [Yhhu-1053, 5-(3-chlorophenoxy)-2,4-diamino quinazoline] |  | 0.79 | 0.38 | 
11 | Nc1nc(N)c2c(OC3CCCC3)cccc2n1 [Yhhu-1056, 5-cyclopentyloxy-2,4-diaminoquinazoline] |  | 0.98 | > 25 | 
12 | CCCCOc1cccc2nc(N)nc(N)c12 [Yhhu-1145, 5-n-butoxy-2,4-diaminoquinazoline] |  | 2.34 | 0.11 | 
13 | Nc1nc(N)c2c(OC34CC5CC(CC(C5)C3)C4)cccc2n1 [Yhhu-1146, 5 (1-adamantyloxy)-2,4-diaminoquinazoline] |  | 5.13 | > 25 | 
14 | Nc1nc(N)c2c(OC3CCCCC3)cccc2n1 [Yhhu-1147, 5-cyclohexyloxy-2,4-diaminoquinazoline] |  | 4.69 | 0.1 | 
15 | Nc1nc(N)c2c(OCC(F)(F)F)cccc2n1 [Yhhu-1148, 5-(2,2,2-trifluoroethoxy-2,4-diaminoquinazoline] |  | 3.12 | 0.04 | 
16 | CCOc1cccc2nc(N)nc(N)c12 [Yhhu-1149, 5-ethoxy-2,4-diaminoquinazoline] |  | 3.94 | 0.16 | 
17 | Nc1ccc(Oc2cccc3nc(N)nc(N)c23)cc1 [Yhhu-1150, 5-(4-aminophenoxy)-2,4-diaminoquinazoline] |  | 7.25 | 0.49 | 
18 | Nc1nc(N)c2c(OCc3cccnc3)cccc2n1 [Yhhu-1151, 5-(3-pyridinemethoxy)-2,4-diaminoquinazoline] |  | 7.84 | 0.43 | 
19 | COc1ccc(Oc2cccc3nc(N)nc(N)c23)cc1 [Yhhu-1152, 5-(4-methoxyphenoxy)-2,4-diaminoquinazoline] |  | 24.7 | 3.11 | 
20 | CCCCCCCCOc1cccc2nc(N)nc(N)c12 [Yhhu-1411, 5-n-octyloxy-2,4-diaminoquinazoline] |  | 1.57 | 0.18 | 
21 | CC(C)CCOc1cccc2nc(N)nc(N)c12 [Yhhu-1412, 5-isoamyloxy-2,4-diaminoquinazoline] |  | 1.74 | 0.1 | 
22 | CC(C)(C)COc1cccc2nc(N)nc(N)c12 [Yhhu-1413, 5-neooamyloxy-2,4-diaminoquinazoline] |  | 3.75 | 0.16 | 
23 | COc1c(C)c2c(c(O)c1C/C=C(\C)CCC(=O)O)C(=O)OC2 [mycoplienolic acid, reference compound] |  |  |  | 1.25
